Reference: article PMC11605156, “Triterpenoids from Ganoderma lucidum inhibit cytochrome P450 enzymes interfering with the metabolic process of specific clinical drugs” (Frontiers in Pharmacology, 2024)

Columns and labels:
CYP2C9 = CYP2C9 (Homo sapiens, UniProt P11712); test: CYP2C9 inhibition, probe/drug metabolism in human liver microsomes; conditions: human, human liver microsomes, pH 7.4, probe diclofenac 4 μM, Residual activity (%) CYP2C9, HLM 0.5 mg/mL, diclofenac 4 μM, 30 min
Method: (§1) The total volume of the in vitro metabolic incubation system is 200 μL. The probe substrate concentration in the system is shown in Supplementary Table S1. […] The reaction sample was preheated in a constant temperature mixer at 37°C. Then NADP^+ was added to the system to initiate the reaction. The reaction time is 30 min, and 100 μL acetonitrile will be added on time to quickly terminate the reaction, followed by centrifugation at 4°C and 20,000 g for 20 min. The supernatant was analyzed using liquid chromatography tandem mass spectrometry (LC-MS/MS), and the activity of CYP enzymes was evaluated by the generation of probe metabolites. The mass spectrometry information of probe substrates is shown in Supplementary Table S3.
(§2) The isolated triterpenoids (1–66) were used to establish a compounds library. The inhibitory effects of 66 triterpenoids from G. lucidum on seven subtypes of CYP enzymes (CYP1A2, 2A6, 2D6, 2B6, 2C9, 2C19, 3A4) were evaluated followed the above-mentioned experimental procedures.
(§3) For 16 clinical drugs metabolized by CYP enzymes, potential DDI studies were conducted on triterpenoids (6, 25) of G. lucidum, and IC50 values were measured.
(§4) Clinical drugs: Phenacetin, melatonin, clozapine and riluzole are metabolized by CYP1A2. Bupropion, artemisinin, efavirenz and sertraline are metabolized by CYP2B6. Diclofenac, valsartan, glimepiride and glibenclamide are metabolized by CYP2C9. Midazolam, imatinib, simvastatin and diltiazem are metabolized by CYP3A4.
(§5) Table S1. The information of probes for CYPs activity assay
(§6) Table S2. Information of clinical drugs

CYP2A6 = biological target: T1, CYP2A6 (Homo sapiens, UniProt P11509); test: CYP2A6 inhibition, coumarin probe in human liver microsomes; conditions: human, human liver microsomes, pH 7.4, probe coumarin 2 μM, Residual activity (%) CYP2A6, HLM 0.5 mg/mL
T1 sequence (P11509 1-494): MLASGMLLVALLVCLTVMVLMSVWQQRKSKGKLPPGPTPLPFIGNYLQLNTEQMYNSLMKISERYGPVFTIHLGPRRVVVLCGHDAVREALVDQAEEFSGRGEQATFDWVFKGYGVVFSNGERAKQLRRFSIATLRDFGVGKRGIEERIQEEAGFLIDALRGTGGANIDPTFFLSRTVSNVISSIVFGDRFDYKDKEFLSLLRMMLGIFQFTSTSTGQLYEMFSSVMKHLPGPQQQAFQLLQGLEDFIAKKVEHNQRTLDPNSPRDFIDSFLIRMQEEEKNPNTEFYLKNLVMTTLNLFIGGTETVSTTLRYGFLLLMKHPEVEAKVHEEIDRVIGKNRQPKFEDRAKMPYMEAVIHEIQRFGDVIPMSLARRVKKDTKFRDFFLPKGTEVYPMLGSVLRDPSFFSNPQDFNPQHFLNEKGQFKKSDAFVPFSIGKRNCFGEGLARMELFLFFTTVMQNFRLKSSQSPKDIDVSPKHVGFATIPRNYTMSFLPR
Method: as §1, §2, §5

CYP2C19 = CYP2C19 (Homo sapiens, UniProt P33261); test: CYP2C19 inhibition, S-mephenytoin probe in human liver microsomes; conditions: human, human liver microsomes, pH 7.4, probe S-mephenytoin 50 μM, Residual activity (%) CYP2C19, HLM 0.5 mg/mL, S-mephenytoin 50 μM, 30 min
CYP2C19, sequence (P33261 whole entry): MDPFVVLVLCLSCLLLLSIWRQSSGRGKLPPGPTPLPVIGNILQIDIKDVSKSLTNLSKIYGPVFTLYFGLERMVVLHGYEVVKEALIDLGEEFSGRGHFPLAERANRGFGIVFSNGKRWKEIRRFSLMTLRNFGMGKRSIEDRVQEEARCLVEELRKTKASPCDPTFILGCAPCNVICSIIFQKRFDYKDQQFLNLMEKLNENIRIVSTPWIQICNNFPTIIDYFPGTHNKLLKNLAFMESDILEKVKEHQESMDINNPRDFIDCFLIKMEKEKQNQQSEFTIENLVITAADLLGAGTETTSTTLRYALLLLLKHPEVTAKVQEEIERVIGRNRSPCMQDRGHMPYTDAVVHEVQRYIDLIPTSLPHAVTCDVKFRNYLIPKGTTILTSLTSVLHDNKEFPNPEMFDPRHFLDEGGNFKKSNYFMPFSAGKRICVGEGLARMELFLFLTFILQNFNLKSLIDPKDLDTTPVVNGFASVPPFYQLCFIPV
Method: as §1, §2, §5

CYP1A2 = biological target: T2, CYP1A2 (Homo sapiens, UniProt P05177); test: CYP1A2 inhibition, probe/drug metabolism in human liver microsomes (LC-MS/MS); conditions: for activity at 30 min: Residual activity (%) CYP1A2, HLM 0.5 mg/mL
T2 sequence (P05177 1-516): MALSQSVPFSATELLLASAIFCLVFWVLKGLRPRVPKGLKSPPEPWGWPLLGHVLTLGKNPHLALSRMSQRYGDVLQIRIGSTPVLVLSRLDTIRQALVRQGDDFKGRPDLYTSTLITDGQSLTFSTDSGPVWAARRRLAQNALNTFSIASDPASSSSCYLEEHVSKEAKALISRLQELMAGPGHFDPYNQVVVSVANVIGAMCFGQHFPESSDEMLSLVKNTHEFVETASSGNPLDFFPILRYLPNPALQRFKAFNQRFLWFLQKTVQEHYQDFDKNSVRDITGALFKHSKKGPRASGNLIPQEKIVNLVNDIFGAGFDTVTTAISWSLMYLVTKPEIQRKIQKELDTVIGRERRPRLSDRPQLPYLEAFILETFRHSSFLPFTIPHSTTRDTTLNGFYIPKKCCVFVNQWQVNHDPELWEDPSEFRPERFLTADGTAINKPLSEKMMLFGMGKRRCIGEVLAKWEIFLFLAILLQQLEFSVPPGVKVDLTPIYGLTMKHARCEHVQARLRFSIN
Method: as §1, §2, §3, §4, §5, §6

CYP2B6 = biological target: T3, CYP2B6 (Homo sapiens, UniProt P20813); test: CYP2B6 inhibition, probe/drug metabolism in human liver microsomes; conditions: human, human liver microsomes, pH 7.4, probe bupropion 75 μM, Residual activity (%) CYP2B6, HLM 0.5 mg/mL, bupropion 75 μM, 30 min
T3 sequence (P20813 1-491): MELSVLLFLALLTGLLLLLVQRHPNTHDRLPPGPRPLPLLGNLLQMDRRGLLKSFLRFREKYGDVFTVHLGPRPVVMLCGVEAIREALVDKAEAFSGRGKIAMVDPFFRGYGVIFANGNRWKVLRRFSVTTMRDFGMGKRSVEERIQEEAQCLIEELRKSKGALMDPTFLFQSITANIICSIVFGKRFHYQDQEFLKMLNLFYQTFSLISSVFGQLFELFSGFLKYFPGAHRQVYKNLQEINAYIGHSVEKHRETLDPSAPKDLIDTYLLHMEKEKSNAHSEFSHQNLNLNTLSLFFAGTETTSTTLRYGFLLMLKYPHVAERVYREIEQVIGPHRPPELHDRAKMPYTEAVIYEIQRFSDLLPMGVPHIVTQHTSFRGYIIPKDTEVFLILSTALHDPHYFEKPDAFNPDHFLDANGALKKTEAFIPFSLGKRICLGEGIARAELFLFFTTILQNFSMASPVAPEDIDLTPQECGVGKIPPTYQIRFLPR
Method: as §1, §2, §3, §4, §5, §6

CYP3A4 = CYP3A4 (Homo sapiens, UniProt P08684); test: CYP3A4 inhibition, probe/drug metabolism in human liver microsomes; conditions: human, human liver microsomes, pH 7.4, probe midazolam 5 μM, Residual activity (%) CYP3A4, HLM 0.5 mg/mL, midazolam 5 μM, 30 min
CYP3A4, sequence (P08684 whole entry): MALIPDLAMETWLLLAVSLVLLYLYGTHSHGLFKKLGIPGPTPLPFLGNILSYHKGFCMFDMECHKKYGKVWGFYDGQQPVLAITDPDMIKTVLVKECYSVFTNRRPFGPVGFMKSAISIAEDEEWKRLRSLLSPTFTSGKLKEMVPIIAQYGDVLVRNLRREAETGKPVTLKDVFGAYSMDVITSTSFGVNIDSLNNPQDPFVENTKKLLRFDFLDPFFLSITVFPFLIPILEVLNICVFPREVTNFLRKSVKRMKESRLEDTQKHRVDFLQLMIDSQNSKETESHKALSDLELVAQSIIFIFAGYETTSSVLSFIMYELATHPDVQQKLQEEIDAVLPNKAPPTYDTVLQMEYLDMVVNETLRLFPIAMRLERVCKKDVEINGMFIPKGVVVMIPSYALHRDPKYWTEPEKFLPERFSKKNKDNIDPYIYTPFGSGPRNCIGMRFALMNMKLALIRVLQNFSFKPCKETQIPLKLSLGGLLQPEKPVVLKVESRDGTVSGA
Method: as §1, §2, §3, §4, §5, §6

CYP2D6 = CYP2D6 (Homo sapiens, UniProt P10635); test: CYP2D6 inhibition, dextromethorphan probe in human liver microsomes; conditions: human, human liver microsomes, pH 7.4, probe dextromethorphan 5 μM, Residual activity (%) CYP2D6, HLM 0.5 mg/mL
CYP2D6, sequence (P10635 whole entry): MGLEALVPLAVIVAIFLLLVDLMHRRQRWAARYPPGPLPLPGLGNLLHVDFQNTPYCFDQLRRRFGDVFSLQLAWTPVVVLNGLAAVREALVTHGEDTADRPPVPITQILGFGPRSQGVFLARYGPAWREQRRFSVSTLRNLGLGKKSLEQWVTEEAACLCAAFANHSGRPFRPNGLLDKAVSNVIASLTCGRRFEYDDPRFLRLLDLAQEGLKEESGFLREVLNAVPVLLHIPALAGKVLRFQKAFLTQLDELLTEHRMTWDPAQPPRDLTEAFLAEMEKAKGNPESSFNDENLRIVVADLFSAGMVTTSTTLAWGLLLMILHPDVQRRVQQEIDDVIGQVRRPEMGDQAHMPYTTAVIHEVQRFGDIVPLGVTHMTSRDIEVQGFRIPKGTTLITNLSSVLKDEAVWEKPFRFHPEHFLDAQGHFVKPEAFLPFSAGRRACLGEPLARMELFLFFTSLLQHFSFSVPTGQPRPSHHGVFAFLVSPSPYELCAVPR
Method: as §1, §2, §5

[1] = IC50 against CYP 1A2, substrate phenacetin 40 μM, HLM
[2] = human, human liver microsomes, pH 7.4, probe phenacetin 40 μM, phenacetin 40 μM, 30 min

CYP2C9, sequence (P11712 whole entry): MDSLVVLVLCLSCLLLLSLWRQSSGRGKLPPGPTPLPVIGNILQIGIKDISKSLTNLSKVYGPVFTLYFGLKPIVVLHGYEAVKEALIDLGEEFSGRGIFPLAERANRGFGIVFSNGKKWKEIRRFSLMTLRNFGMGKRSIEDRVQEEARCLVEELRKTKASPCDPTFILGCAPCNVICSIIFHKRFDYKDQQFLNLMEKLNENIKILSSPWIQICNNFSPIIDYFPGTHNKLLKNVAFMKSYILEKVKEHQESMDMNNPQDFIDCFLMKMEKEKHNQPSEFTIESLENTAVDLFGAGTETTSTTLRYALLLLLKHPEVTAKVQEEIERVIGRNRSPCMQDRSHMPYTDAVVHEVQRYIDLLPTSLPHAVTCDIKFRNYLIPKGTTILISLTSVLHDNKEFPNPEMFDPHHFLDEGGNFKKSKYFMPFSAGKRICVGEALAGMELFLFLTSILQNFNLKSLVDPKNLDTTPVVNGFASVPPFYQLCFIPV

| SMILES | activity at 30 min (CYP2C9) [%] | activity at 30 min (CYP2A6) [%] | activity at 30 min (CYP2C19) [%] | IC50 (CYP1A2; [1]) [µM] | activity at 30 min (CYP1A2; [2]) [%] | activity at 30 min (CYP2B6) [%] | activity at 30 min (CYP3A4) [%] | activity at 30 min (CYP2D6) [%] | IC50 at 30 min (CYP1A2; human, human liver microsomes, pH 7.4, probe phenacetin 40 μM, IC50 against CYP 1A2, substrate phenacetin 40 μM, HLM) [µM] | IC50 (CYP1A2; IC50 against metabolism of clozapine mediated by CYP1A2, substrate clozapine 10 μM, 20 min) [µM] | IC50 (CYP1A2; IC50 against metabolism of melatonin mediated by CYP1A2, substrate melatonin 5 μM, 30 min) [µM] | IC50 (CYP1A2; IC50 against metabolism of riluzole mediated by CYP1A2, substrate riluzole 5 μM, 60 min) [µM] | IC50 (CYP1A2; IC50 values, metabolism of four drugs mediated by CYP 1A2, range over phenacetin, riluzole, clozapine, melatonin) [µM] | Residual activity (%) CYP1A2 (CYP1A2; HLM 0.5 mg/mL, phenacetin 40 μM, 30 min) [%] |
| --- | --- | --- | --- | --- | --- | --- | --- | --- | --- | --- | --- | --- | --- | --- |
| CC(CC(=O)CC(C)C1CC(=O)C2(C)C3=C(C(=O)CC12C)C1(C)CCC(=O)C(C)(CO)C1CC3O)C(=O)O (stereo not shown) [Compound 8] | 94.8 ± 5.64 | 79.1 ± 0.81 | 68.6 ± 7.25 | 11.3 ± 0.31 | 30.2 ± 3.05 | 91.6 ± 8.64 | 90.8 ± 3.82 | 76.9 ± 0.9 |  |  |  |  |  |  |
| CC(=CC(=O)CC(C)C(=O)O)C1CC(=O)C2(C)C3=C(C(=O)CC12C)C1(C)CCC(=O)C(C)(CO)C1CC3O (stereo not shown) [Compound 1] | 91.82 ± 0.87 | 79.5 ± 3.07 | 65 ± 6 | 10.1 ± 0.23 | 29.1 ± 1.9 | 86.9 ± 5.76 | 84.3 ± 7.26 | 82.4 ± 1.5 |  |  |  |  |  |  |
| CC(=O)OC1C(=O)C2=C(C(=O)CC3C(C)(C)C(=O)CCC23C)C2(C)C(=O)CC(C(C)CC(O)C=C(C)C(=O)O)C12C (stereo not shown) [Compound 31] | 80.99 ± 0.51 | 86.17 ± 0.44 | 94.8 ± 4.46 |  | 53.7 ± 1.44 | 71.2 ± 4.24 | 104 ± 1.72 | 103 ± 3.3 | 29 ± 6.91 |  |  |  |  |  |
| CC(CC(=O)CC(C)C1CC(=O)C2(C)C3=C(C(=O)C(O)C12C)C1(C)CCC(=O)C(C)(CO)C1CC3O)C(=O)O (stereo not shown) [Compound 3] | 87.3 ± 6.36 | 79.9 ± 0.97 | 63.6 ± 7.83 | 14 ± 1.73 | 33 ± 4.08 | 75.3 ± 4.16 | 60.3 ± 3.06 | 76.5 ± 4.49 |  |  |  |  |  |  |
| CC(=CC(=O)CC(C)C(=O)O)C1CC(=O)C2(C)C3=C(C(=O)C(O)C12C)C1(C)CCC(=O)C(C)(CO)C1CC3O (stereo not shown) [Compound 6, ganoderica F] | 90.5 ± 3.9 | 75.3 ± 1.29 | 58.5 ± 8.25 | 9.62 ± 2.03 | 28 ± 1.5 | 84.6 ± 5.76 | 72.57 ± 0.19 | 66.7 ± 6.29 |  | 12.9 ± 1.11 | 19 ± 1.68 | 14.8 ± 2.15 | 9.62 to 19 |  |
| CC(=CC(=O)CC(C)C(=O)O)C1CC(=O)C2(C)C3=C(C(=O)CC12C)C1(C)CCC(=O)C(C)(C)C1CC3O (stereo not shown) [Compound 51] | 99.8 ± 6.62 | 86 ± 4.07 | 110 ± 3.54 | 38.6 ± 9.4 | 58 ± 2.08 | 77.8 ± 7.96 | 94.1 ± 7.18 | 89.5 ± 3.3 |  |  |  |  |  |  |
| CC(=O)OC1C(=O)C2=C(C(=O)CC3C(C)(C)C(=O)CCC23C)C2(C)C(=O)CC(C(C)CC(=O)CC(C)C(=O)O)C12C (stereo not shown) [Compound 9] | 77 ± 5.67 | 91.5 ± 2.1 | 105 ± 6.46 |  |  | 94.3 ± 1.83 | 93.7 ± 4.04 | 94 ± 5.67 |  |  |  |  |  | 89.44±0.96 |

Further lines, results first:

| activity at 30 min (CYP2C9) [%] | activity at 30 min (CYP2A6) [%] | activity at 30 min (CYP2C19) [%] | IC50 (CYP1A2; [1]) [µM] | activity at 30 min (CYP1A2; [2]) [%] | activity at 30 min (CYP2B6) [%] | activity at 30 min (CYP3A4) [%] | activity at 30 min (CYP2D6) [%] | IC50 at 30 min (CYP1A2; human, human liver microsomes, pH 7.4, probe phenacetin 40 μM, IC50 against CYP 1A2, substrate phenacetin 40 μM, HLM) [µM] | IC50 (CYP1A2; IC50 against metabolism of clozapine mediated by CYP1A2, substrate clozapine 10 μM, 20 min) [µM] | IC50 (CYP1A2; IC50 against metabolism of melatonin mediated by CYP1A2, substrate melatonin 5 μM, 30 min) [µM] | IC50 (CYP1A2; IC50 against metabolism of riluzole mediated by CYP1A2, substrate riluzole 5 μM, 60 min) [µM] | IC50 (CYP1A2; IC50 values, metabolism of four drugs mediated by CYP 1A2, range over phenacetin, riluzole, clozapine, melatonin) [µM] | Residual activity (%) CYP1A2 (CYP1A2; HLM 0.5 mg/mL, phenacetin 40 μM, 30 min) [%] | SMILES |
| --- | --- | --- | --- | --- | --- | --- | --- | --- | --- | --- | --- | --- | --- | --- |
| 62.8 ± 2.72 | 83.7 ± 8.67 | 79.3 ± 0.38 | 21.4 ± 5.21 | 43.8 ± 4.18 | 89.1 ± 3.71 | 96.8 ± 4.2 | 103 ± 3.3 |  |  |  |  |  |  | CC(CC(=O)CC(C)C1CC(O)C2(C)C3=C(C(=O)CC12C)C1(C)CCC(=O)C(C)(C)C1CC3)C(=O)O (stereo not shown) [Compound 42] |
| 94.8 ± 3.33 | 104 ± 1.4 | 97.6 ± 4.86 |  | 88 ± 3.49 | 94.3 ± 3.45 | 60.1 ± 3.57 | 104 ± 3.22 |  |  |  |  |  |  | CC1(C)CCC2(C(=O)O)CCC3(C)C(=CC(=O)C4C5(C)CCC(O)C(C)(C)C5CCC43C)C2C1 (stereo not shown) [Compound 37] |
| 86.6 ± 1.3 | 81.24 ± 0.65 | 57.82 ± 0.056 | 11.6 ± 1.02 | 29.1 ± 0.38 | 97.5 ± 4.16 | 67.6 ± 2.68 | 76.9 ± 6.89 |  |  |  |  |  |  | CC(CC(=O)CC(C)C1CC(O)C2(C)C3=C(C(=O)CC12C)C1(C)CCC(O)C(C)(CO)C1CC3=O)C(=O)O (stereo not shown) [Compound 4] |
